Test results: patent publication US20250374919A1, “AQUEOUS SUSPENSION AGROCHEMICAL COMPOSITION CONTAINING NATURAL RUBBER” (SUMITOMO CHEMICAL COMPANY, LIMITED, priority 2022, published 2025)

Test: Water solubility of agrochemical active ingredient at 20° C.
Type: physicochemical

Row | Compound | water solubility at 20° C. [ppm]
1 | Cc1nnc(Cl)c(-c2c(F)cccc2F)c1-c1ccccc1 [Pyridachlometyl] | 0.8
2 | Inpyrfluxam | 16.4
